# Assay results: PMC7182988 (Saudi Journal of Biological Sciences, 2020)
# Entries after “also recorded” stand apart in the source; their conditions may differ. Like-named read-outs stand apart in the source and are kept apart here.
# Assays:
# human recombinant COX-1 = human recombinant COX-1 (Homo sapiens, UniProt P23219); assay: COX-1; assay type: biochemical; details: for COX-1% (percentage of inhibition of COX-1): at 40 μg/mL; for Selectivity IC50 COX-1/IC50 COX-2: defined as IC50 COX-1/IC50 COX-2; for inhibition at 40 µg/mL: read-out: COX-1% (percentage of inhibition of COX-1)
# human recombinant COX-2 = molecular target: T1, human recombinant COX-2 (Homo sapiens, UniProt P35354); assay: COX-2; assay type: biochemical; details: for COX-2% (percentage of inhibition of COX-2): at 40 μg/mL; for inhibition at 40 µg/mL: read-out: COX-2% (percentage of inhibition of COX-2)
# T1 sequence (P35354 18-604): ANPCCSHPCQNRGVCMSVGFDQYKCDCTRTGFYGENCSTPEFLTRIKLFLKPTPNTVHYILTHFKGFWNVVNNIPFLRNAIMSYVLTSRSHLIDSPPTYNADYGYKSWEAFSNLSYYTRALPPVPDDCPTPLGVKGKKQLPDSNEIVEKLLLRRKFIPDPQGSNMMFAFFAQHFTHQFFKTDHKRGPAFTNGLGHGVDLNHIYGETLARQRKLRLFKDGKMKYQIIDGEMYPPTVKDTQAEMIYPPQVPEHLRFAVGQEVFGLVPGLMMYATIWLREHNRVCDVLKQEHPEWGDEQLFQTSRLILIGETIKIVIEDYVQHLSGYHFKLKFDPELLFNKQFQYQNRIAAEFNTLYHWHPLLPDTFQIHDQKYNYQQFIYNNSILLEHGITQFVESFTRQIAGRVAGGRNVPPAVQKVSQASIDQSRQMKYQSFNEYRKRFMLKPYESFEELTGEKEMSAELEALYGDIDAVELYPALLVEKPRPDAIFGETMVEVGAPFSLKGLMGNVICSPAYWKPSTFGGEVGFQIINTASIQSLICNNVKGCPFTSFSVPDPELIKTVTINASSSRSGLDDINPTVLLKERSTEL
# [1] = test system: LPS-induced IL-6 in WI-38 fibroblast cells; assay: ELISA assay for IL-6 release in LPS-stimulated cells; assay type: cell-based; details: for IL-6 (pg/ml)% (percentage of inhibition of IL-6): WI-38 cells, test compounds 10 µM, LPS 0.5 µg/mL, LPS alone = 100; for inhibition of IL-6 release (in words): LPS-stimulated WI-38 fibroblast cells
# [2] = test system: LPS-induced TNF-α in WI-38 fibroblast cells; assay: ELISA assay for TNF-α release in LPS-stimulated cells; assay type: cell-based; details: for TNF-α (pg/ml)% (percentage of inhibition of TNF-α): WI-38 cells, test compounds 10 µM, LPS 0.5 µg/mL, LPS alone = 100; for inhibition of TNF-α release (in words): LPS-stimulated WI-38 fibroblast cells
# [3] = read-out: COX-1 IC50 (μM ± SD), mean ± SD of triplicate experiments
# [4] = read-out: COX-2 IC50 (μM ± SD), mean ± SD of triplicate experiments
# Chain of human recombinant COX-1 (P23219 24-599): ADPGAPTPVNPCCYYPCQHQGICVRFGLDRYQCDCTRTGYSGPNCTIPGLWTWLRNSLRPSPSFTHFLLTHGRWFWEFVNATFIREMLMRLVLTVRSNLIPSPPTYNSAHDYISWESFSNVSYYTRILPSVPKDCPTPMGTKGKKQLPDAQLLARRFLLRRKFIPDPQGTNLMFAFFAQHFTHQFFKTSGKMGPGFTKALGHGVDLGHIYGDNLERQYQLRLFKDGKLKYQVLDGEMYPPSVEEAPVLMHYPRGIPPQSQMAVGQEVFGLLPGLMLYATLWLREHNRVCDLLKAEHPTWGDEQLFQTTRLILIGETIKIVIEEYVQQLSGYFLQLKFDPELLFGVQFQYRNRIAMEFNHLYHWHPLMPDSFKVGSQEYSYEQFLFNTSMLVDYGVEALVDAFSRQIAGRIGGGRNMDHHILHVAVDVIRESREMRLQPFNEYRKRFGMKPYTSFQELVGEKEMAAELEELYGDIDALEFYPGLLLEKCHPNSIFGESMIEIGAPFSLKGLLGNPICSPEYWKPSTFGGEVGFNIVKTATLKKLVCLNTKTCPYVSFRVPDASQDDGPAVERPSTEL
Selectivity IC50 COX-1/IC50 COX-2 (human recombinant COX-1) [%],IC50 (human recombinant COX-1) [µM],inhibition at 40 µg/mL (human recombinant COX-1) [%],IC50 (human recombinant COX-2) [µM],inhibition at 40 µg/mL (human recombinant COX-2) [%],Structure (SMILES),also measured
10,–,–,–,–,"CC(=O)O[C@@H]1CC[C@@]2(C)[C@@H](CC[C@]3(C)[C@@H]2C(=O)C=C2[C@@H]4[C@@H](C)[C@H](C)CC[C@]4(C)CC[C@]23C)[C@@]1(C)C(=O)O [Acetyl-keto boswellic acid, reference compound]",COX-1% (percentage of inhibition of COX-1) (human recombinant COX-1): 71.42%; IC50 (human recombinant COX-1; [3]): 7.84 ± 0.13 µM; COX-2% (percentage of inhibition of COX-2) (human recombinant COX-2): 19.87%; IC50 (human recombinant COX-2; [4]): 82.52 ± 0.62 µM; IL-6 (pg/ml)% (percentage of inhibition of IL-6) [1]: 7.31%; TNF-α (pg/ml)% (percentage of inhibition of TNF-α) [2]: 18.76%
10,–,–,–,–,"CC(=O)O[C@@H]1CC[C@@]2(C)[C@@H](CC[C@]3(C)[C@@H]2CC=C2[C@@H]4CC(C)(C)CC[C@]4(C)CC[C@]23C)[C@@]1(C)C(=O)O [Acetyl-α-boswellic acid, reference compound]",COX-1% (percentage of inhibition of COX-1) (human recombinant COX-1): 69.81%; IC50 (human recombinant COX-1; [3]): 10.1 ± 0.17 µM; COX-2% (percentage of inhibition of COX-2) (human recombinant COX-2): 7.98%; IC50 (human recombinant COX-2; [4]): > 100 µM; IL-6 (pg/ml)% (percentage of inhibition of IL-6) [1]: 15.73%; TNF-α (pg/ml)% (percentage of inhibition of TNF-α) [2]: 14.87%
11,–,–,–,–,"CC(=O)O[C@@H]1CC[C@@]2(C)[C@@H](CC[C@]3(C)[C@@H]2CC=C2[C@@H]4[C@@H](C)[C@H](C)CC[C@]4(C)CC[C@]23C)[C@@]1(C)C(=O)O [Acetyl-β-boswellic acid, reference compound]",COX-1% (percentage of inhibition of COX-1) (human recombinant COX-1): 75.73%; IC50 (human recombinant COX-1; [3]): 8.16 ± 0.1 µM; COX-2% (percentage of inhibition of COX-2) (human recombinant COX-2): 14.87%; IC50 (human recombinant COX-2; [4]): 72.52 ± 0.51 µM; IL-6 (pg/ml)% (percentage of inhibition of IL-6) [1]: 11.42%; TNF-α (pg/ml)% (percentage of inhibition of TNF-α) [2]: 19.87%
–,–,–,–,–,"Cc1ccc(-c2cc(C(F)(F)F)nn2-c2ccc(S(N)(=O)=O)cc2)cc1 [Celecoxib, reference compound]",IL-6 (pg/ml)% (percentage of inhibition of IL-6) ([1]; 10 µM): 24.77%
23,20.4 ± 0.55,57.4,88.1 ± 1.78,11.2,"O=C(c1ccccc1)C1C(c2cc3ccccc3o2)C2CSCN2[C@@]12C(=O)Nc1ccc(Cl)cc12 (stereo partly drawn) [Compound 5a, (3S)-7'-(Benzofuran-2-yl)-6'-benzoyl-5-chloro-1',6',7',7a'-tetrahydro-3'H-spiro[indoline-3,5'-pyrrolo[1,2-c]thiazol]-2-one]",–
49,37 ± 1.54,40.8,76.2 ± 1.46,8.33,"O=C(c1ccc(F)cc1)C1C(c2cc3ccccc3o2)C2CSCN2[C@@]12C(=O)Nc1ccc(Cl)cc12 (stereo partly drawn) [Compound 5c, (3S)-7'-(Benzofuran-2-yl)-5-chloro-6'-(4-fluorobenzoyl)-1',6',7',7a'-tetrahydro-3'H-spiro[indoline-3,5'-pyrrolo[1,2-c]thiazol]-2-one]",–
–,–,19.8,–,7.77,"O=C(c1ccc(F)cc1)C1C(c2cc3ccccc3o2)C2C3CCCCC3CN2[C@@]12C(=O)Nc1ccc(Cl)cc12 (stereo partly drawn) [Compound 5d, (3S)-1'-(benzofuran-2-yl)-5-chloro-2'-(4-fluorobenzoyl)-1',2',5',5a',6',7',8',9',9a',9b'-decahydrospiro-[indoline-3,3'-pyrrolo[2,1-a]isoindol]-2-one]",inhibition of IL-6 release (in words) [1]: markedly inhibited; also recorded: most effective; also recorded: high potency; inhibition of TNF-α release (in words) [2]: markedly inhibited; also recorded: most effective; also recorded: high potency
–,–,9.43,–,1.8,"O=C(c1ccc(F)cc1)C1C(c2cc3ccccc3o2)C2C3CCCCC3CN2[C@@]12C(=O)Nc1ccc(Br)cc12 (stereo partly drawn) [Compound 5e, (3S)-1'-(Benzofuran-2-yl)-5-bromo-2'-(4-fluorobenzoyl)-1',2',5',5a',6',7',8',9',9a',9b'-decahydrospiro-[indoline-3,3'-pyrrolo[2,1-a]isoindol]-2-one]",inhibition of IL-6 release (in words) [1]: markedly inhibited; also recorded: most effective; also recorded: high potency; inhibition of TNF-α release (in words) [2]: markedly inhibited; also recorded: most effective; also recorded: high potency
–,–,32.1,–,5.92,"O=C(c1ccc(Br)cc1)C1C(c2cc3ccccc3o2)C2C3CCCCC3CN2[C@@]12C(=O)Nc1ccc(Cl)cc12 (stereo partly drawn) [Compound 5f, (3S)-1'-(Benzofuran-2-yl)-2'-(4-bromobenzoyl)-5-chloro-1',2',5',5a',6',7',8',9',9a',9b'-decahydrospiro-[indoline-3,3'-pyrrolo[2,1-a]isoindol]-2-one]",inhibition of IL-6 release (in words) [1]: markedly inhibited; also recorded: most effective; also recorded: high potency; inhibition of TNF-α release (in words) [2]: markedly inhibited; also recorded: most effective; also recorded: high potency
–,–,19.8,–,2.76,"O=C(c1ccc(Br)cc1)C1C(c2cc3ccccc3o2)C2C3CCCCC3CN2[C@@]12C(=O)Nc1ccc(Br)cc12 (stereo partly drawn) [Compound 5g, (3S)-1'-(Benzofuran-2-yl)-5-bromo-2'-(4-bromobenzoyl)-1',2',5',5a',6',7',8',9',9a',9b'-decahydrospiro-[indoline-3,3'-pyrrolo[2,1-a]isoindol]-2-one]",inhibition of IL-6 release (in words) [1]: markedly inhibited; also recorded: most effective; also recorded: high potency; inhibition of TNF-α release (in words) [2]: markedly inhibited; also recorded: most effective; also recorded: high potency
42,35.7 ± 0.51,41.7,84.7 ± 1.16,9.8,"O=C(c1ccc(Br)cc1)C1C(c2cc3ccccc3o2)C2CSCN2[C@@]12C(=O)Nc1ccc(Br)cc12 (stereo partly drawn) [Compound 5h, (3S)-7'-(Benzofuran-2-yl)-5-bromo-6'-(4-bromobenzoyl)-1',6',7',7a'-tetrahydro-3'H-spiro[indoline-3,5'-pyrrolo[1,2-c]thiazol]-2-one]",–
41,29.55 ± 0.19,44.5,71.2 ± 1.29,17.9,"O=C(c1ccc(Br)cc1)C1C(c2cc3ccccc3o2)C2CSCN2[C@@]12C(=O)Nc1ccc(Cl)cc12 (stereo partly drawn) [Compound 5i, (3S)-7'-(Benzofuran-2-yl)-6'-(4-bromobenzoyl)-5-chloro-1',6',7',7a'-tetrahydro-3'H-spiro[indoline-3,5'-pyrrolo[1,2-c]thiazol]-2-one]",–
–,–,12.3,–,4.45,"O=C(c1ccc(C(F)(F)F)cc1)C1C(c2cc3ccccc3o2)C2C3CCCCC3CN2[C@@]12C(=O)Nc1ccc(Br)cc12 (stereo partly drawn) [Compound 5k, (3S)-1'-(Benzofuran-2-yl)-5-bromo-2'-(4-(trifluoromethyl)benzoyl)-1',2',5',5a',6',7',8',9',9a',9b'-decahydro-spiro[indoline-3,3'-pyrrolo[2,1-a]isoindol]-2-one]",inhibition of IL-6 release (in words) [1]: markedly inhibited; also recorded: most effective; also recorded: high potency; inhibition of TNF-α release (in words) [2]: markedly inhibited; also recorded: most effective; also recorded: high potency
–,31.25 ± 0.24,47.7,58.8 ± 1.58,19.8,"O=C(c1ccc(C(F)(F)F)cc1)C1C(c2cc3ccccc3o2)C2CSCN2[C@@]12C(=O)Nc1ccc(Cl)cc12 (stereo partly drawn) [Compound 5l, (3S)-7'-(Benzofuran-2-yl)-5-chloro-6'-(4-(trifluoromethyl)benzoyl)-1',6',7',7a'-tetrahydro-3'H-spiro-[indoline-3,5'-pyrrolo[1,2-c]thiazol]-2-one]",–
45,38.2 ± 0.96,52.8,85.7 ± 1.51,9.98,"O=C(c1ccc(Cl)cc1)C1C(c2cc3ccccc3o2)C2CSCN2[C@@]12C(=O)Nc1ccc(Cl)cc12 (stereo partly drawn) [Compound 5p, (3S)-7'-(Benzofuran-2-yl)-5-chloro-6'-(4-chlorobenzoyl)-1',6',7',7a'-tetrahydro-3'H-spiro[indoline-3,5'-pyrrolo[1,2-c]thiazol]-2-one]",–
–,–,87.3,–,–,"COc1ccc2c(c1)c(CC(=O)O)c(C)n2C(=O)c1ccc(Cl)cc1 [Indomethacin, reference compound]",–
18,18.1 ± 0.42,64.8,> 100,7.66,"C[C@H]1[C@H](C)CC[C@]2(C)CC[C@]3(C)C(=CC[C@@H]4[C@@]5(C)CC[C@@H](O)[C@](C)(C(=O)O)[C@@H]5CC[C@]43C)[C@H]12 [β-Boswellic acid, reference compound]",–
